Data as given in patent US20070071794A1, “DRUGS FOR TREATING DIABETES” (priority 2004, published 2007).

Columns and labels:
[1] = tested on: INS-1 cells derived from pancreatic β cells of rats; assay: Effect of improving insulin secretion defects in INS-1 cells cultured under high glucose; type: cell-based; conditions: for improvement in insulin secretion defects (significance): secretion defective + amino acid condition, p<0.05; for Index of insulin secretion improvement: 25 mM glucose 28 h, then 11.1 mM glucose + amino acid at 10 times RPMI concentration 19 h, secretion in 16.7 mM glucose 2 h, 0 = defective cond., 1 = ordinary cond.
Description: INS-1 cells derived from pancreatic β cells of rats were dispersed in each amount of 2×10^5 cells on a 24-well culture plate, then divided into three groups and cultured under the following conditions. That is:
First Group: Culture on RPMI medium (Non-patent Literature 4) under the ordinary condition.
Second Group: Culture under the secretion defective condition by culture under the high glucose concentration. That is, the glucose concentration was increased under the culture conditions of the first group.
Third Group: Under the culture condition of the second group, culture was conducted so that the end concentration of aspartic acid, cystine, serine, asparagine, isoleucine, histidine, hydroxyproline, glutamic acid or valine in the medium became 10 times as high as the concentration thereof in the RPMI medium.
First Group: ordinary condition
• cultured in 11.1 mM glucose for 28 hours, • cultured in 11.1 mM glucose for 19 hours Second Group: secretion defective condition • cultured in 25 mM glucose for 28 hours, • cultured in 11.1 mM glucose for 19 hours Third Group: secretion defective+amino acid condition • cultured in 25 mM glucose for 28 hours,
cultured in 11.1 mM glucose+amino acids for 19 hours
Those cultured cells were further cultured for 1 hour in KRBH buffer (Non-patent Literature 5), and cultured for 2 hours in KRBH buffer containing 16.7 mM glucose. Then, insulin secretion rate was determined. Under the secretion defective condition of the second group, the insulin secretion rate of […] lowered to about 60% of that under the ordinary condition. The effect of improving insulin secretion defects of amino acids was calculated by the following index. Index of insulin secretion improvement=((insulin secretion of the third group)−(insulin secretion of the second group))/((insulin secretion of the first group)−(insulin secretion of the second group))
(Reference: The index of insulin secretion improvement becomes 0 when the insulin secretion in administration of amino acids is same as that in the secretion defective condition, and it becomes 1 when the insulin secretion in administration of amino acids is same as that in the ordinary condition.)

GK rats = assay: Glucose tolerance test in GK rats fed aspartic acid (blood glucose ΔAUC, insulinogenic index); type: in vivo; conditions: for ΔAUC (blood glucose, glucose tolerance test): eighth week, oral 1 g/kg glucose after 5 hour fasting, CON group 230
Description: Male GK rats (7 weeks old) were fed in the following groups.
CON Group: 5 GK rats Controlled food was administered.
3AS Group: 5 GK rats Food with 3% aspartic acid was administered.
6AS Group: 5 GK rats Food with 6% aspartic acid was administered.
In the eighth week of administration, the glucose tolerance test (oral administration of 1 g/kg of glucose) was conducted to the rats after 5 hour fasting, and their blood glucose and insulin levels were determined over time.
Insulinogenic index was determined from the results of the glucose tolerance test after eight week administration in Example 2. Insulinogenic index is the value wherein the insulin rate secreted in 15 minutes after adding glucose was divided by the glucose level that increased in 15 minutes after adding glucose.

[2] = tested on: INS-1 cells derived from pancreatic β cells of rats; assay: Insulin secretion of INS-1 cells with aspartic acid combined with an insulin secretagogue; type: cell-based; conditions: 5 mM glucose, 2 hours; for insulin secretion rate: n=3, Cond. 1 (no drug) 2.85±0.49; for insulin secretion increase (significance, in words): KRBH buffer, 0.3 μM nateglinide and/or 10 mM aspartic acid, compared to Condition 1 (combination also to Conditions 2, 3)
Description: INS-1 cells derived from pancreatic β cells of rats were dispersed in each amount of 2×10^5 cells on a 24-well culture plate, and cultured on RPMI medium for 48 hours. […] Condition 1: KRBH buffer, 5 mM glucose Condition 2: KRBH buffer, 5 mM glucose, 0.3 μM nateglinide Condition 3: […] Condition 4: […]

Compound	improvement in insulin secretion defects (significance) [1]	Index of insulin secretion improvement [1]	further results
NCCCC[C@H](N)C(=O)O [lysine, reference compound]	significant improvement in insulin secretion defects was not confirmed	–	–
CC(C)[C@H](N)C(=O)O [Val, valine]	significantly improved	0.35	–
N[C@@H](CSSC[C@H](N)C(=O)O)C(=O)O [Cystine, cystine]	significantly improved	1.08	–
NC(=O)C[C@H](N)C(=O)O [Asn, asparagine]	significantly improved	0.87	–
N=C(N)NCCC[C@H](N)C(=O)O [arginine, reference compound]	significant improvement in insulin secretion defects was not confirmed	–	–
N[C@@H](CO)C(=O)O [Ser, serine]	significantly improved	0.97	–
N[C@@H](CCC(=O)O)C(=O)O [Glu, glutamic acid]	significantly improved	0.57	–
N[C@@H](Cc1c[nH]cn1)C(=O)O [His, histidine]	significantly improved	0.67	–
N[C@@H](CC(=O)O)C(=O)O [Asp, L-aspartic acid]	significantly improved	1.75	ΔAUC (blood glucose, glucose tolerance test) (GK rats; 3AS group: food with 3% aspartic acid): 190 mg·h/dL; ΔAUC (blood glucose, glucose tolerance test) (GK rats; 6AS group: food with 6% aspartic acid): 140 mg·h/dL; Insulinogenic index (result in words) (GK rats; food with 3% or 6% aspartic acid, eight weeks, insulin secreted / glucose increase in 15 minutes after glucose): improved corresponding to the administered dose; glucose tolerance (result in words) (GK rats; food with 6% aspartic acid, after eight week administration): improvement in the glucose tolerance was seen; insulin secretion rate ([2]; Condition 3: KRBH buffer, 10 mM aspartic acid): 3.69 ± 0.87 ng/mL; insulin secretion increase (significance, in words) [2]: significant insulin secretion increase was not seen
O=C(O)[C@@H]1C[C@@H](O)CN1 [Hydroxyproline, hydroxyproline]	significantly improved	0.64	–
CC(C)C[C@H](N)C(=O)O [leucine, reference compound]	significant improvement in insulin secretion defects was not confirmed	–	–
CC(C)[C@H]1CC[C@H](C(=O)N[C@H](Cc2ccccc2)C(=O)O)CC1 [nateglinide, reference compound]	–	–	insulin secretion rate ([2]; Condition 2: KRBH buffer, 0.3 μM nateglinide): 4.34 ± 1.19 ng/mL; insulin secretion increase (significance, in words) [2]: significant insulin secretion increase was not seen
CC[C@H](C)[C@H](N)C(=O)O [Ile, isoleucine]	significantly improved	0.84	–
